In the NIST ThermoML archive (doi:10.1016/j.tca.2012.02.002):
Values joined by “and” are separate entries in the source; they are usually repeats but may differ in a detail not shown here. Identical values can stand only once.

Test: molar heat capacity at constant pressure
Conditions: 101.33 kPa, Crystal

O=P([O-])([O-])[O-].[Er+3] [erbium phosphate]
Conditions	molar heat capacity at constant pressure
2 K, Drop calorimetry	0.189 J/K/mol
2.05 K, Relaxation Calorimetry	0.1821 J/K/mol
2.06 K, Relaxation Calorimetry	0.1815 J/K/mol
2.15 K, Relaxation Calorimetry	0.169 J/K/mol and 0.1693 J/K/mol
2.23 K, Relaxation Calorimetry	0.1585 J/K/mol
2.24 K, Relaxation Calorimetry	0.1587 J/K/mol
2.33 K, Relaxation Calorimetry	0.1486 J/K/mol and 0.1492 J/K/mol
2.42 K, Relaxation Calorimetry	0.1398 J/K/mol
2.52 K, Relaxation Calorimetry	0.1308 J/K/mol and 0.1303 J/K/mol
2.62 K, Relaxation Calorimetry	0.1226 J/K/mol
2.63 K, Relaxation Calorimetry	0.1216 J/K/mol
2.73 K, Relaxation Calorimetry	0.1149 J/K/mol
2.74 K, Relaxation Calorimetry	0.1147 J/K/mol
2.84 K, Relaxation Calorimetry	0.1079 J/K/mol
2.85 K, Relaxation Calorimetry	0.1075 J/K/mol
2.96 K, Relaxation Calorimetry	0.1012 J/K/mol
2.97 K, Relaxation Calorimetry	0.101 J/K/mol
3 K, Drop calorimetry	0.0991 J/K/mol
3.08 K, Relaxation Calorimetry	0.09512 J/K/mol
3.09 K, Relaxation Calorimetry	0.095 J/K/mol
3.21 K, Relaxation Calorimetry	0.08975 J/K/mol
3.22 K, Relaxation Calorimetry	0.0889 J/K/mol
3.34 K, Relaxation Calorimetry	0.08523 J/K/mol
3.35 K, Relaxation Calorimetry	0.0846 J/K/mol
3.48 K, Relaxation Calorimetry	0.08127 J/K/mol and 0.0813 J/K/mol
3.62 K, Relaxation Calorimetry	0.07825 J/K/mol
3.64 K, Relaxation Calorimetry	0.0777 J/K/mol
3.77 K, Relaxation Calorimetry	0.07611 J/K/mol and 0.0763 J/K/mol
3.93 K, Relaxation Calorimetry	0.0754 J/K/mol
4 K, Drop calorimetry	0.0755 J/K/mol
4.1 K, Relaxation Calorimetry	0.07633 J/K/mol and 0.0764 J/K/mol
4.27 K, Relaxation Calorimetry	0.07937 J/K/mol and 0.079 J/K/mol
4.44 K, Relaxation Calorimetry	0.08477 J/K/mol
4.45 K, Relaxation Calorimetry	0.0843 J/K/mol
4.62 K, Relaxation Calorimetry	0.09293 J/K/mol
4.63 K, Relaxation Calorimetry	0.0925 J/K/mol
4.82 K, Relaxation Calorimetry	0.1048 J/K/mol and 0.1045 J/K/mol
5.02 K, Relaxation Calorimetry	0.1211 J/K/mol and 0.1208 J/K/mol
5.22 K, Relaxation Calorimetry	0.1421 J/K/mol and 0.142 J/K/mol
5.44 K, Relaxation Calorimetry	0.1701 J/K/mol and 0.1698 J/K/mol
5.67 K, Relaxation Calorimetry	0.2055 J/K/mol and 0.2049 J/K/mol
5.91 K, Relaxation Calorimetry	0.2491 J/K/mol and 0.2489 J/K/mol
6 K, Drop calorimetry	0.268 J/K/mol
6.15 K, Relaxation Calorimetry	0.3031 J/K/mol and 0.3029 J/K/mol
6.41 K, Relaxation Calorimetry	0.3662 J/K/mol and 0.3497 J/K/mol
6.67 K, Relaxation Calorimetry	0.4408 J/K/mol
6.68 K, Relaxation Calorimetry	0.4451 J/K/mol
6.96 K, Relaxation Calorimetry	0.5353 J/K/mol and 0.5363 J/K/mol
7.24 K, Relaxation Calorimetry	0.6377 J/K/mol
7.25 K, Relaxation Calorimetry	0.6369 J/K/mol
7.55 K, Relaxation Calorimetry	0.7594 J/K/mol and 0.7584 J/K/mol
7.87 K, Relaxation Calorimetry	0.893 J/K/mol and 0.8931 J/K/mol
8 K, Drop calorimetry	0.956 J/K/mol
8.2 K, Relaxation Calorimetry	1.047 J/K/mol and 1.049 J/K/mol
8.54 K, Relaxation Calorimetry	1.218 J/K/mol
8.56 K, Vacuum adiabatic calorimetry	1.262 J/K/mol
8.9 K, Relaxation Calorimetry	1.407 J/K/mol and 1.404 J/K/mol
9.19 K, Vacuum adiabatic calorimetry	1.587 J/K/mol
9.27 K, Relaxation Calorimetry	1.607 J/K/mol and 1.604 J/K/mol
9.65 K, Relaxation Calorimetry	1.831 J/K/mol
9.84 K, Vacuum adiabatic calorimetry	1.971 J/K/mol
10 K, Drop calorimetry	2.222 J/K/mol
10.05 K, Relaxation Calorimetry	2.057 J/K/mol and 2.046 J/K/mol
10.26 K, Relaxation Calorimetry	2.218 J/K/mol
10.52 K, Vacuum adiabatic calorimetry	2.384 J/K/mol
10.53 K, Relaxation Calorimetry	2.408 J/K/mol
10.66 K, Relaxation Calorimetry	2.462 J/K/mol
10.91 K, Relaxation Calorimetry	2.636 J/K/mol
11.1 K, Relaxation Calorimetry	2.733 J/K/mol
11.21 K, Vacuum adiabatic calorimetry	2.814 J/K/mol
11.35 K, Relaxation Calorimetry	2.908 J/K/mol
11.56 K, Relaxation Calorimetry	3.016 J/K/mol
11.81 K, Relaxation Calorimetry	3.191 J/K/mol
11.92 K, Vacuum adiabatic calorimetry	3.253 J/K/mol
12.04 K, Relaxation Calorimetry	3.31 J/K/mol
12.29 K, Relaxation Calorimetry	3.486 J/K/mol
12.53 K, Relaxation Calorimetry	3.616 J/K/mol
12.64 K, Vacuum adiabatic calorimetry	3.701 J/K/mol
12.78 K, Relaxation Calorimetry	3.791 J/K/mol
13.05 K, Relaxation Calorimetry	3.929 J/K/mol
13.3 K, Relaxation Calorimetry	4.098 J/K/mol
13.37 K, Vacuum adiabatic calorimetry	4.111 J/K/mol
13.59 K, Relaxation Calorimetry	4.242 J/K/mol
13.84 K, Relaxation Calorimetry	4.403 J/K/mol
14.12 K, Vacuum adiabatic calorimetry	4.51 J/K/mol
14.15 K, Relaxation Calorimetry	4.549 J/K/mol
14.41 K, Relaxation Calorimetry	4.708 J/K/mol
14.74 K, Relaxation Calorimetry	4.863 J/K/mol
14.88 K, Vacuum adiabatic calorimetry	4.899 J/K/mol
14.99 K, Relaxation Calorimetry	5.019 J/K/mol
15 K, Drop calorimetry	4.903 J/K/mol
15.35 K, Relaxation Calorimetry	5.181 J/K/mol
15.6 K, Relaxation Calorimetry	5.328 J/K/mol
15.65 K, Vacuum adiabatic calorimetry	5.247 J/K/mol
15.99 K, Relaxation Calorimetry	5.488 J/K/mol
16.24 K, Relaxation Calorimetry	5.627 J/K/mol
16.43 K, Vacuum adiabatic calorimetry	5.599 J/K/mol
16.65 K, Relaxation Calorimetry	5.792 J/K/mol
16.91 K, Relaxation Calorimetry	5.923 J/K/mol
17.21 K, Vacuum adiabatic calorimetry	5.933 J/K/mol
17.34 K, Relaxation Calorimetry	6.085 J/K/mol
17.6 K, Relaxation Calorimetry	6.206 J/K/mol
18 K, Vacuum adiabatic calorimetry	6.247 J/K/mol
18.06 K, Relaxation Calorimetry	6.369 J/K/mol
18.32 K, Relaxation Calorimetry	6.493 J/K/mol
18.8 K, Vacuum adiabatic calorimetry	6.533 J/K/mol
18.81 K, Relaxation Calorimetry	6.67 J/K/mol
19.07 K, Relaxation Calorimetry	6.774 J/K/mol
19.59 K, Vacuum adiabatic calorimetry	6.837 J/K/mol
19.6 K, Relaxation Calorimetry	6.935 J/K/mol
19.85 K, Relaxation Calorimetry	7.052 J/K/mol
20 K, Drop calorimetry	6.881 J/K/mol
20.41 K, Relaxation Calorimetry	7.222 J/K/mol
20.67 K, Relaxation Calorimetry	7.329 J/K/mol
20.84 K, Vacuum adiabatic calorimetry	7.265 J/K/mol
21.26 K, Relaxation Calorimetry	7.493 J/K/mol
21.52 K, Relaxation Calorimetry	7.59 J/K/mol
22.14 K, Relaxation Calorimetry	7.771 J/K/mol
22.39 K, Vacuum adiabatic calorimetry	7.793 J/K/mol
22.4 K, Relaxation Calorimetry	7.869 J/K/mol
23.06 K, Relaxation Calorimetry	8.068 J/K/mol
23.32 K, Relaxation Calorimetry	8.163 J/K/mol
23.97 K, Vacuum adiabatic calorimetry	8.29 J/K/mol
24.02 K, Relaxation Calorimetry	8.364 J/K/mol
24.29 K, Relaxation Calorimetry	8.456 J/K/mol
25 K, Drop calorimetry	8.631 J/K/mol
25.02 K, Relaxation Calorimetry	8.665 J/K/mol
25.28 K, Relaxation Calorimetry	8.765 J/K/mol
25.55 K, Vacuum adiabatic calorimetry	8.799 J/K/mol
26.06 K, Relaxation Calorimetry	9.002 J/K/mol
26.32 K, Relaxation Calorimetry	9.091 J/K/mol
27.13 K, Vacuum adiabatic calorimetry	9.314 J/K/mol
27.41 K, Relaxation Calorimetry	9.432 J/K/mol
28.27 K, Relaxation Calorimetry	9.673 J/K/mol
28.53 K, Relaxation Calorimetry	9.786 J/K/mol
28.72 K, Vacuum adiabatic calorimetry	9.871 J/K/mol
29.45 K, Relaxation Calorimetry	10.07 J/K/mol
29.72 K, Relaxation Calorimetry	10.17 J/K/mol
30 K, Drop calorimetry	10.43 J/K/mol
30.31 K, Vacuum adiabatic calorimetry	10.46 J/K/mol
30.68 K, Relaxation Calorimetry	10.5 J/K/mol
30.95 K, Relaxation Calorimetry	10.6 J/K/mol
31.9 K, Vacuum adiabatic calorimetry	11.11 J/K/mol
31.97 K, Relaxation Calorimetry	10.96 J/K/mol
32.22 K, Relaxation Calorimetry	11.08 J/K/mol
33.31 K, Relaxation Calorimetry	11.44 J/K/mol
33.49 K, Vacuum adiabatic calorimetry	11.75 J/K/mol
33.56 K, Relaxation Calorimetry	11.58 J/K/mol
34.69 K, Relaxation Calorimetry	11.99 J/K/mol
34.95 K, Relaxation Calorimetry	12.12 J/K/mol
35 K, Drop calorimetry	12.41 J/K/mol
35.09 K, Vacuum adiabatic calorimetry	12.32 J/K/mol
36.69 K, Vacuum adiabatic calorimetry	13.09 J/K/mol
38.29 K, Vacuum adiabatic calorimetry	13.85 J/K/mol
39.9 K, Vacuum adiabatic calorimetry	14.59 J/K/mol
40 K, Drop calorimetry	14.63 J/K/mol
41.51 K, Vacuum adiabatic calorimetry	15.35 J/K/mol
43.13 K, Vacuum adiabatic calorimetry	16.12 J/K/mol
44.75 K, Vacuum adiabatic calorimetry	16.95 J/K/mol
45 K, Drop calorimetry	17.07 J/K/mol
46.39 K, Vacuum adiabatic calorimetry	17.8 J/K/mol
